GI50 and TGI data for four compounds are collected here from PubChem BioAssay (NCI).

Among the test systems are CCRF-CEM leukemia; COLO 205 colon; HCC-2998 colon; KM12 colon; MALME-3M melanoma; NCI-H23 lung; OVCAR-8 ovarian; PC-3 prostate; SK-MEL-2 melanoma; SN12C renal.
What all share (assay): growth of human tumour cells (NCI), 48 h

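Test compounds were applied to cells in 96-well plates for 48 hours at 5 doses. At the GI50, growth is halved. The concentration for full growth arrest is given as TGI.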 Where only a bound is given, the exact number is not on record here.

`Nc1nc2c(c3ncccc13)C(c1ccc(Cl)c(Cl)c1)Cc1ncccc1-2` (centres undefined): the GI50 with CCRF-CEM leukemia was 3.27 µM; in the test with COLO 205 colon, 2.65 µM; with HCC-2998 colon it was 5.62 µM; in the test on KM12 colon, 2.73 µM; in the test with MALME-3M melanoma, 8.94 µM; in the test with NCI-H23 lung, 5.59 µM. In addition, the GI50 is 4.24 µM with OVCAR-8 ovarian, 3.4 µM in the test with PC-3 prostate, 3.79 µM with SK-MEL-2 melanoma and 6.71 µM in the test with SN12C renal. Further, the TGI in the test on CCRF-CEM leukemia is 16.6 µM; with COLO 205 colon it was 7.3 µM; in the test on HCC-2998 colon, 19.1 µM; in the test with KM12 colon, 14.4 µM; in the test on MALME-3M melanoma it was 26.3 µM; with NCI-H23 lung, 21.6 µM. Further, the TGI was determined as 36.5 µM in the test on OVCAR-8 ovarian, 15.5 µM with PC-3 prostate, 15.8 µM in the test on SK-MEL-2 melanoma and 24.8 µM in the test with SN12C renal.

On to `COc1cc([C@@H]2c3cc4c(cc3C(Br)[C@H]3COC(=O)[C@H]23)OCO4)cc(OC)c1OC` (some centres undefined), for which the GI50 in the test on CCRF-CEM leukemia was 0.363 µM; in the test on COLO 205 colon, 0.189 µM; in the test with HCC-2998 colon, 0.255 µM; in the test on KM12 colon it was 0.0909 µM; in the test with MALME-3M melanoma it was 51.3 µM; in the test on NCI-H23 lung, 0.321 µM. In addition, the GI50 was 0.31 µM in the test with OVCAR-8 ovarian, 0.438 µM in the test with PC-3 prostate, 0.499 µM with SK-MEL-2 melanoma and 0.549 µM in the test with SN12C renal. Further, the TGI in the test on CCRF-CEM leukemia is > 100 µM; with COLO 205 colon, 0.399 µM; in the test with HCC-2998 colon, 0.694 µM; with KM12 colon, 0.438 µM; in the test with MALME-3M melanoma, > 100 µM; with NCI-H23 lung it was > 100 µM. Besides, the TGI in the test with PC-3 prostate, in the test with SK-MEL-2 melanoma and with SN12C renal was > 100 µM each time.

Regarding `Cc1ccccc1S(=O)(=O)N1[C@H](c2ccc(Cl)cc2)C(C(=O)N[C@@H](Cc2ccccc2)C(N)=O)=C[C@@H]1C(C)(C)C`, the GI50 in the test on CCRF-CEM leukemia was 5.77 µM; in the test on COLO 205 colon, 6.8 µM; in the test with HCC-2998 colon, 6.48 µM; in the test on KM12 colon it was 4.49 µM; with MALME-3M melanoma, 10.2 µM; in the test with NCI-H23 lung, 8.05 µM. Further, the GI50 was 5.95 µM in the test with OVCAR-8 ovarian, 2.39 µM with PC-3 prostate, 9.59 µM in the test with SK-MEL-2 melanoma and 6.08 µM in the test on SN12C renal. Also, the TGI with CCRF-CEM leukemia came out at 26.7 µM; with COLO 205 colon, 14.3 µM; in the test with HCC-2998 colon it was 13.5 µM; in the test with KM12 colon, 13.3 µM; with MALME-3M melanoma, 20.1 µM; in the test with NCI-H23 lung, 17.6 µM. For the same compound, the TGI with OVCAR-8 ovarian was 25.4 µM; with PC-3 prostate it was 12.2 µM; in the test on SK-MEL-2 melanoma it was 17.6 µM; with SN12C renal, 13.3 µM.

With `C=C(C)C(=O)OC1CC2(C)OC2CC(OC(C)=O)/C(C)=C/C2OC(=O)C(=C)C21` (centres undefined), the TGI with CCRF-CEM leukemia amounted to 0.654 µM; with COLO 205 colon it was 3.42 µM; with HCC-2998 colon, 15.1 µM; in the test with KM12 colon, 33.7 µM; with MALME-3M melanoma, 3.23 µM; in the test on NCI-H23 lung it was 19.4 µM. In addition, the TGI amounted to 18.7 µM with OVCAR-8 ovarian, 22.5 µM in the test on PC-3 prostate, 18.1 µM in the test on SK-MEL-2 melanoma and 9.37 µM with SN12C renal.
